{"source": "paper PMC10938783", "about": "“A novel pan-PI3K inhibitor KTC1101 synergizes with anti-PD-1 therapy by targeting tumor suppression and immune activation” (Molecular Cancer, 2024)", "assay_type_in_all_cases": "cell-based", "key": {"A549": {"test_system": "A549", "test": "JFCR39 sulforhodamine B growth assay", "details": "Homo sapiens, A549, 48 h", "procedure": "(§1) JFCR39 drug discovery system was used to measure the growth inhibitory activities and identify the target of KTC1101. The JFCR39 panel consists of 39 cell lines seeded in 96-well plates. After 48-h treatment with KTC1101, cell growth was measured using the sulforhodamine B assay. […] The deviation of log GI50 for each cell line from the average log GI50 across the JFCR39 panel was plotted as a fingerprint. MG-MID (mean of Log GI50 values) represents the average log GI50 for all 39 cell lines. The most sensitive and least sensitive cell lines were identified by calculating the difference in their log GI50 values (Range) and the difference between the most sensitive cell line and the average GI50 on the JFCR39 panel (Delta). The fingerprint of KTC1101 was compared with the fingerprints of reference compounds in the database. The Pearson correlation coefficient (r) was calculated (n = 39)."}, "ACHN": {"test_system": "ACHN", "test": "JFCR39 sulforhodamine B growth assay", "details": "Homo sapiens, 48 h", "procedure": "as §1"}, "BSY-1": {"test_system": "BSY-1", "test": "JFCR39 sulforhodamine B growth assay", "details": "Homo sapiens, BSY-1, 48 h", "procedure": "as §1"}, "DMS273": {"test_system": "DMS273", "test": "JFCR39 sulforhodamine B growth assay", "details": "Homo sapiens, DMS-273; DMS273, 48 h", "procedure": "as §1"}, "DU-145": {"test_system": "DU-145", "test": "JFCR39 sulforhodamine B growth assay", "details": "Homo sapiens, DU-145, 48 h", "procedure": "as §1"}, "HBC-4": {"test_system": "HBC-4", "test": "JFCR39 sulforhodamine B growth assay", "details": "Homo sapiens, HBC4; HBC-4, 48 h", "procedure": "as §1"}, "HBC-5": {"test_system": "HBC-5", "test": "JFCR39 sulforhodamine B growth assay", "details": "Homo sapiens, HBC5; HBC-5, 48 h", "procedure": "as §1"}, "HCC2998": {"test_system": "HCC2998", "test": "JFCR39 sulforhodamine B growth assay", "details": "Homo sapiens, HCC 2998; HCC2998, 48 h", "procedure": "as §1"}, "HCT-116": {"test_system": "HCT-116", "test": "JFCR39 sulforhodamine B growth assay", "details": "Homo sapiens, HCT-116, 48 h", "procedure": "as §1"}, "HCT-15": {"test_system": "HCT-15", "test": "JFCR39 sulforhodamine B growth assay", "details": "Homo sapiens, HCT-15, 48 h", "procedure": "as §1"}, "KM-12": {"test_system": "KM-12", "test": "JFCR39 sulforhodamine B growth assay", "details": "Homo sapiens, KM12; KM-12, 48 h", "procedure": "as §1"}, "LOX-IMVI": {"test_system": "LOX-IMVI", "test": "JFCR39 sulforhodamine B growth assay", "details": "Homo sapiens, 48 h", "procedure": "as §1"}, "MCF-7": {"test_system": "MCF-7", "test": "JFCR39 sulforhodamine B growth assay", "details": "Homo sapiens, MCF7; MCF-7, 48 h", "procedure": "as §1"}, "MDA-MB-231": {"test_system": "MDA-MB-231", "test": "JFCR39 sulforhodamine B growth assay", "details": "Homo sapiens, MDA-MB-231, 48 h", "procedure": "as §1"}, "MKN-A": {"test_system": "MKN-A", "test": "JFCR39 sulforhodamine B growth assay", "details": "Homo sapiens, 48 h", "procedure": "as §1"}, "MKN-B": {"test_system": "MKN-B", "test": "JFCR39 sulforhodamine B growth assay", "details": "Homo sapiens, 48 h", "procedure": "as §1"}, "MKN1": {"test_system": "MKN1", "test": "JFCR39 sulforhodamine B growth assay", "details": "Homo sapiens, MKN-1; MKN1, 48 h", "procedure": "as §1"}, "NCI-H226": {"test_system": "NCI-H226", "test": "JFCR39 sulforhodamine B growth assay", "details": "Homo sapiens, NCI-H226, 48 h", "procedure": "as §1"}, "NCI-H23": {"test_system": "NCI-H23", "test": "JFCR39 sulforhodamine B growth assay", "details": "Homo sapiens, NCI-H23, 48 h", "procedure": "as §1"}, "NCI-H460": {"test_system": "NCI-H460", "test": "JFCR39 sulforhodamine B growth assay", "details": "Homo sapiens, NCI-H460, 48 h", "procedure": "as §1"}, "NCI-H522": {"test_system": "NCI-H522", "test": "JFCR39 sulforhodamine B growth assay", "details": "Homo sapiens, NCI-H522, 48 h", "procedure": "as §1"}, "OVCAR-3": {"test_system": "OVCAR-3", "test": "JFCR39 sulforhodamine B growth assay", "details": "Homo sapiens, OVCAR-3, 48 h", "procedure": "as §1"}, "OVCAR-5": {"test_system": "OVCAR-5", "test": "JFCR39 sulforhodamine B growth assay", "details": "Homo sapiens, OVCAR-5, 48 h", "procedure": "as §1"}, "OVCAR-8": {"test_system": "OVCAR-8", "test": "JFCR39 sulforhodamine B growth assay", "details": "Homo sapiens, OVCAR-8, 48 h", "procedure": "as §1"}, "PC-3": {"test_system": "PC-3", "test": "JFCR39 sulforhodamine B growth assay", "details": "Homo sapiens, PC-3, 48 h", "procedure": "as §1"}, "RXF-631L": {"test_system": "RXF-631L", "test": "JFCR39 sulforhodamine B growth assay", "details": "Homo sapiens, 48 h", "procedure": "as §1"}, "SF-268": {"test_system": "SF-268", "test": "JFCR39 sulforhodamine B growth assay", "details": "Homo sapiens, SF-268, 48 h", "procedure": "as §1"}, "SF-295": {"test_system": "SF-295", "test": "JFCR39 sulforhodamine B growth assay", "details": "Homo sapiens, SF-295, 48 h", "procedure": "as §1"}, "SF-539": {"test_system": "SF-539", "test": "JFCR39 sulforhodamine B growth assay", "details": "Homo sapiens, SF-539, 48 h", "procedure": "as §1"}, "SK-OV-3": {"test_system": "SK-OV-3", "test": "JFCR39 sulforhodamine B growth assay", "details": "Homo sapiens, SK-OV-3, 48 h", "procedure": "as §1"}, "SNB-75": {"test_system": "SNB-75", "test": "JFCR39 sulforhodamine B growth assay", "details": "Homo sapiens, SNB-75, 48 h", "procedure": "as §1"}, "St-4": {"test_system": "St-4", "test": "JFCR39 sulforhodamine B growth assay", "details": "Homo sapiens, St-4, 48 h", "procedure": "as §1"}, "CD4^+ T cells": {"test_system": "CD4^+ T cells", "test": "T cell suppression assay (CFSE)", "details": "Mus musculus, 72 h, read-out: IC50 proliferation", "procedure": "(§2) Spleens from naive mice were isolated and ground through 70-μm filters to generate a single-cell suspension. After RBC lysis, single-cell suspensions were stained with CD3, CD8, CD4, CD25 or CD127 antibodies. Viable CD8^+ T cells (CD3^+CD8^+), CD4^+ T cells (CD3^+CD4^+), and Tregs (CD3^+CD4^+CD25^+CD127^low/−) from single-cell suspensions were sorted by FACS. Then T cells were labelled with […] in pre-warmed PBS for 10 min at 37 °C. The CFSE-labelled T cells were seeded in 96-well plates pre-coated with 10 μg/mL CD3 and 1 μg/mL CD28 antibodies and cultured in 1640 media with 10% FBS, 1 mM Sodium Pyruvate (Thermo, 11,360,070), 50 μM β-ME and 100 IU/mL IL2, as well as different concentrations of KTC1101 or solvent control. After 72 h, cells were harvested and the CFSE signal was measured by flow cytometry. Cell growth rate was calculated by the percentage of live, proliferated cell number at each drug concentration vs. solvent control."}, "CD8^+ T cells": {"test_system": "CD8^+ T cells", "test": "T cell suppression assay (CFSE)", "details": "Mus musculus, 72 h, read-out: IC50 proliferation", "procedure": "as §2"}}}
{"smiles": "COc1cc(N)cc2c1nc(C(F)F)n2-c1nc(N2CCCOCC2)nc(N2CCOCC2)n1", "note": "[KTC1101, 2-(difluoromethyl)-4-methoxy-1-(4-morpholino-6-(1,4-oxazepan-4-yl)-1,3,5-triazin-2-yl)-1H-benzo[d]imidazol-6-amine]", "values": [{"measurement": "GI50", "setting": "A549", "value": 21.9, "unit": "nM"}, {"measurement": "GI50", "setting": "ACHN", "value": 21.4, "unit": "nM"}, {"measurement": "GI50", "setting": "BSY-1", "value": 10, "unit": "nM"}, {"measurement": "GI50", "setting": "DMS273", "value": 11, "unit": "nM"}, {"measurement": "GI50", "setting": "DU-145", "value": 23.4, "unit": "nM"}, {"measurement": "GI50", "setting": "HBC-4", "value": 24.5, "unit": "nM"}, {"measurement": "GI50", "setting": "HBC-5", "value": 14.5, "unit": "nM"}, {"measurement": "GI50", "setting": "HCC2998", "value": 36.3, "unit": "nM"}, {"measurement": "GI50", "setting": "HCT-116", "value": 31.6, "unit": "nM"}, {"measurement": "GI50", "setting": "HCT-15", "value": 17.8, "unit": "nM"}, {"measurement": "GI50", "setting": "KM-12", "value": 178, "unit": "nM"}, {"measurement": "GI50", "setting": "LOX-IMVI", "value": 17.4, "unit": "nM"}, {"measurement": "GI50", "setting": "MCF-7", "value": 10, "unit": "nM"}, {"measurement": "GI50", "setting": "MDA-MB-231", "value": 30.2, "unit": "nM"}, {"measurement": "GI50", "setting": "MKN-A", "value": 145, "unit": "nM"}, {"measurement": "GI50", "setting": "MKN-B", "value": 28.8, "unit": "nM"}, {"measurement": "GI50", "setting": "MKN1", "value": 10, "unit": "nM"}, {"measurement": "GI50", "setting": "NCI-H226", "value": 16.6, "unit": "nM"}, {"measurement": "GI50", "setting": "NCI-H23", "value": 25.7, "unit": "nM"}, {"measurement": "GI50", "setting": "NCI-H460", "value": 10, "unit": "nM"}, {"measurement": "GI50", "setting": "NCI-H522", "value": 10, "unit": "nM"}, {"measurement": "GI50", "setting": "OVCAR-3", "value": 15.8, "unit": "nM"}, {"measurement": "GI50", "setting": "OVCAR-5", "value": 23.4, "unit": "nM"}, {"measurement": "GI50", "setting": "OVCAR-8", "value": 30.9, "unit": "nM"}, {"measurement": "GI50", "setting": "PC-3", "value": 15.8, "unit": "nM"}, {"measurement": "GI50", "setting": "RXF-631L", "value": 15.5, "unit": "nM"}, {"measurement": "GI50", "setting": "SF-268", "value": 18.2, "unit": "nM"}, {"measurement": "GI50", "setting": "SF-295", "value": 14.8, "unit": "nM"}, {"measurement": "GI50", "setting": "SF-539", "value": 10, "unit": "nM"}, {"measurement": "GI50", "setting": "SK-OV-3", "value": 12.9, "unit": "nM"}, {"measurement": "GI50", "setting": "SNB-75", "value": 10, "unit": "nM"}, {"measurement": "GI50", "setting": "St-4", "value": 105, "unit": "nM"}, {"measurement": "IC50", "setting": "CD4^+ T cells", "value": 16, "unit": "nM"}, {"measurement": "IC50", "setting": "CD8^+ T cells", "value": 31.7, "unit": "nM"}]}
